The values below come from patent US6207675A, “Pyrrole derivatives, their preparation and pharmaceutical compositions containing them” (Rhone-Poulenc Rorer S.A., priority 1996, dated 2001).

The structures appear in SMILES notation. In brackets after ≈: the same amount, converted by molar mass.

Assay [1] concerns human cytomegalovirus Davis strain. The assay is described as follows: Antiviral activity on human cytomegalovirus, Davis strain (protection from virus-induced cytopathogenic effect). It is filed as cell-based. Conditions: for IC50 (concentration necessary to inhibit 50% of the cytopathogenic effect induced by the virus): Davis strain; for IC50: Human betaherpesvirus 5, Davis strain, read-out: IC50 (concentration necessary to inhibit 50% of the cytopathogenic effect induced by the virus). The procedure: (§1) Infect. Dis., 10, 1026-1033 (1991); or in the technique described by Andrei et al., Eur. J. Clin. Microbiol. Infect. Dis., 11, 143-151 (1992), Reymen et al., Antiviral Res., 28, 343-357 (1995).
(§2) The technique used consists in the measurement of the cytopathogenic effect of the herpesvirus and of its protection by the use of products of general formula (I). The antiviral activity is assessed by measuring the IC50 (concentration necessary to inhibit 50% of the cytopathogenic effect induced by the virus).
(§3) The activity of the products according to the invention on the human cytomegalovirus has been studied on the Davis and AD-169 strains.

For assay [2], the system named is human cytomegalovirus AD-169 strain. Briefly: Antiviral activity on human cytomegalovirus, AD-169 strain (protection from virus-induced cytopathogenic effect). It is filed as cell-based. The procedure:
as §1, §2, §3
A general note: Damage to the host cells serves as the signal in cytopathic effect assays.

With `NC(=O)c1c(Cl)c(-c2cccnc2)n2c1C(O)CCC2` (racemic) [Example 7, (R,S)-2-chloro-8-hydroxy-3-pyridin-3-yl-5,6,7,8-tetrahydroindolizine-1-carboxamide], in assay [1] (listed as 7 [(R,S) form]), the “IC50 (concentration necessary to inhibit 50% of the cytopathogenic effect induced by the virus)” value was 0.015 µg/mL. Further, the IC50 in assay [1] stood at 0.027 µg/mL (≈ 0.0925 µM).
For the molecule `NC(=O)c1c(Cl)c(-c2cccnc2)n2c1C=C(Cl)CC2` [Example 1, 2,7-dichloro-3-pyridin-3-yl-5,6-dihydroindolizine-1-carboxamide], the IC50 in assay [1] amounted to 0.5 µg/mL (≈ 1.62 µM).
For `COC1=Cc2c(C(N)=O)c(Cl)c(-c3cccnc3)n2CC1` [Example 2, 2-chloro-7-methoxy-3-pyridin-3-yl-5,6-dihydroindolizine-1-carboxamide], the results for the “IC50 (concentration necessary to inhibit 50% of the cytopathogenic effect induced by the virus)” value in assay [2] (AD-169 strain) and in assay [1] were 0.86 µg/mL and 0.72 µg/mL, respectively. In addition, the IC50 is 0.5 µg/mL (≈ 1.65 µM) in assay [2] (Human betaherpesvirus 5, AD169, AD-169 strain, read-out: IC50 (concentration necessary to inhibit 50% of the cytopathogenic effect induced by the virus)) and 0.43 µg/mL (≈ 1.42 µM) in assay [1].
